In patent US10780076B2, “Inhibition of cancer cell motility” (Northwestern University, priority 2014, dated 2020):

Experiments:
[1] = test system: osteonectin expression in PC3 cells; experiment: Gene array screen for differentially expressed genes; type: cell-based, human
Protocol: FIGS. 21A-C. KBU2046 disrupts osteonectin expression. PC3 cells were treated +/− with 10 uM KBU2046×3 d (A), or were transfected with siRNA to osteonectin (siOST) or non-targeting (siCO) (B), and osteonectin/GAPDH expression measured by qRT/PCR. (C) PC3 cells were transfected with siOST, siCO, treated with +/−KBU2046, and cell invasion measured.
Having identified inhibition of Ser^226 phosphorylation as the molecular target of KBU2046 for inhibition of cell motility, experiments were conducted during development of embodiments herein to identify downstream regulators of its action. PC3 cells with KBU2046, and screened for differentially expressed genes using two different SABiosciences (Qiagen) gene array platforms: Human Metastasis Array and Human Extracellular Matrix and Adhesion Molecule Array. […] No other significant effects were identified. Separate experiments confirmed differential expression by gene-specific qRT/PCR (FIG. 21A). […] Clinically, overexpression of osteonectin in primary PCa has been associated with the development of metastasis to bone.

[2] = test system: human bone marrow stem cells; experiment: Hematopoietic stem cell 14-day colony formation assay; type: cell-based; conditions: colonies at 14 days
Protocol: (FIG. 2A) Cell invasion. Human prostate metastatic cells (PC3, PC3-M), and HPV transformed normal (1532NPTX, I542NPTX) and primary cancer (1532CPTX, 1542CPTX) cells, were treated with 10 μM genistein (G), KBU2046 (46) or vehicle (CO), and after 3 days, cell invasion was measured. Values are mean±SEM. (FIG. 2B) Single cell migration. Cell migration was measured after treatment for 3 days with 10 μM KBU2046 or vehicle (control). Values are mean±SEM. *Denotes Student's t test P value </=0.05, compared to controls. […] Values are mean±SEM. (FIG. 2D) Human cord blood hematopoietic stem cell colony formation assay. Values are the mean±SD number of total, CFU-GM, CFU-GEMM or BFU-E colonies at 14 days after treatment with KBU2046. […]
Additional functional measures of toxicity included a NCI-based screen of the NCI 60-cell line panel (Shoemaker, 2006; herein incorporated by reference in its entirety), expression of estrogen-responsive genes by qRT/PCR (Ding et al., 2007; herein incorporated by reference in its entirety), induction of an estrogen-responsive promoter by luciferase assay (Breen et al., 2013; Catherino and Jordan, 1995; herein incorporated by reference in their entireties), and a hematopoietic stem cell 14-day colony formation assay (Bergan et al., 1996; herein incorporated by reference in its entirety). […] The migration of individual cells was assessed by time-lapse video microscopy.

human prostate cells = experiment: Three day cell growth inhibition, prostate cells; type: cell-based; conditions: 3 days
[3] = Pharmacokinetics in CD1 mice; type: in vivo; conditions: single oral dose
Protocol: FIGS. 3A-D. KBU2046 inhibits cancer metastasis and prolongs life. (A, B) Inhibition of PCa metastasis. Cohorts of athymic mice bearing human PCa PC3-M cell orthotopic implants (A), or of non-tumor bearing athymic mice (B), were treated with KBU2046 incorporated into chow, and resultant lung metastasis (A) or plasma KBU2046 concentration (B) measured. Values are the mean±SEM. The relationship between dose and metastasis was evaluated by two-sided ANOVA (A). (C) Comprehensive characterization of KBU2046 phannacokinetics. CD1 mice were dosed with 100 mg KBU2046/kg via oral gavage or intravenous injection (iv), and blood collected at the indicated time points. The dotted horizontal line denotes a concentration of 24 nM, which was the concentration of KBU2046 measured in the blood of mice whose metastasis were suppressed by 92% (A, B). […]
FIG. 11. […] (top graph) Concentration versus time plot, expressed as ng/ml. The 100 mg dosing data was re-plotted and expressed as nM. […] Values are parameter estimates from a naive pooled data approach in which single plasma concentrations measured for individual animals were pooled for both routes of administration of both doses and modeled simultaneously.
Orthotopic implantation of human PCa cells and quantification of distant metastasis was performed as described (Pavese et al., 2013; herein incorporated by reference in its entirety). […]

time plasma concentration maintained >24 nM [3]: 9.3 h
Compound: O=C1c2ccccc2OCC1c1ccc(F)cc1 (racemic) [KBU2046, 4′-fluoroisoflavanone]
suppression of osteonectin expression [1]: 2.0 fold | toxicity to human bone marrow stem cells [2]: not toxic | toxicity to human prostate cells (cell growth inhibition) (human prostate cells): not toxic
